Structures are written as SMILES.

On data set [1], the source says: The molecular formula for bisacodyl is (C22H19NO4), and the molecular weight is 361.39 gram/mole.
Data set [2] in a line: Water solubility (qualitative statement). The data set is classed as physicochemical. From the text:
Ready-to-use bisacodyl preparations have a short shelf-life (i.e., less than 18 months), can experience settling, and result in waste (e.g., a significant portion of the drug remains in the package). There is a need in the art for a ready-to-use bisacodyl preparation with a longer shelf life and less wasteful apparatus for delivery into the colon.

For data set [3] the following is noted: cited from earlier work.

In data set [1], `CC(=O)Oc1ccc(C(c2ccc(OC(C)=O)cc2)c2ccccn2)cc1` [Bisacodyl, 4,4′-(pyridin-2-ylmethylene)bis(4,1-phenylene) diacetate] registered an aqueous molar solubility of 3.4 µM. Also, the water solubility result in data set [2] is on record as “poor water solubility”. Besides, the “time to have an effect” value in data set [3] (administered orally, 5-10 milligrams) is 6 to 12 h. Further, the “time in which usually effective” value in data set [3] (administered rectally in suppository form, 10 mg) was 15 to 60 min.

With `Oc1ccc(C(c2ccc(O)cc2)c2ccccn2)cc1` [desacetyl bisacodyl], the water solubility entry in data set [2] is reported as “poor water solubility”.
